Key:
[1] = test system: tumor inflammation-related adverse effects; settings: preliminary data; confirmed PR and SD observed in patients given prophylaxis
[2] = test system: intratumoral T cells; assay: Biomarker analysis of on-treatment tumor biopsies; format: in vivo, human
Method: (§1) Methods: In 2 ongoing dose-escalation phase I studies, CEA-TCB is given as monotherapy IV QW (S1) or in combination (QW) with atezolizumab 1200 mg Q3W (S2) in patients with advanced CEA positive (≥20% of tumor cells expressing moderate or high) solid tumors. In S1, 80 patients (70 CRC) were treated at dose levels of 0.05-600 mg; in S2, 45 patients (35 CRC) at 5-160 mg (data cut-off 3 Mar. 2017). In addition biomarker analysis and PK assays were conducted.

[3] = test system: advanced CEA positive solid tumors; format: in vivo, human
Method: In S1, 80 patients (70 CRC) were treated at dose levels of 0.05-600 mg; in S2, 45 patients (35 CRC) at 5-160 mg (data cut-off 3 Mar. 2017). In addition biomarker analysis and PK assays were conducted.

[4] = test system: tumor cells; settings: preclinically; increased intratumoral T-cell infiltration and activation, T-cell-mediated tumor cell killing, PD-L1/PD-1 upregulation; cited from earlier work
[5] = design: species or system human; settings: in vivo
Method: as §1

[6] = test system: IL-6; assay: Biomarker analysis: IL-6 after administration; format: in vivo, human; settings: most patients; after the first administration
Method: as §1

| Compound | effect of prophylactic steroid doses on anti-tumor activity of CEA-TCB monotherapy or combination with atezolizumab [1] | increase in Ki67+ T cells as compared to baseline ([2]; S1, doses ≥60 mg, OT biopsies, P=0.035, without dose-dependence) [fold] | intratumoral CD8 T cells ([2]; on-treatment) | tumor reduction of −10% to −30% (stable disease), share of patients ([3]; S1 monotherapy, doses ≥60 mg, MSS CRC patients, 4 patients) [%] | confirmed partial response (PR; RECIST v1.1), share of CRC patients ([3]; S1 monotherapy, doses ≥60 mg, two of 31 evaluable CRC patients, both MSS) [%] | metabolic PR (FDG PET; EORTC criteria), share of CRC patients ([3]; S1 monotherapy, weeks 4-6, 9 patients) [%] | MTD (maximum tolerated dose) ([3]; human, in vivo, iv) [mg] | patients with dose limiting toxicities (DLTs) ([3]; in vivo) | related adverse event: diarrhea ([3]; in vivo) [%] | related adverse event: infusion-related reactions (IRRs) ([3]; in vivo) [%] | related adverse event: pyrexia ([3]; in vivo) [%] | antitumor activity in advanced CRC ([3]; monotherapy, during dose escalation) | preclinical antitumor activity [4] | effect of ADA on drug clearance ([5]; human) | PK linearity [5] | IL-6 change [6] |
| --- | --- | --- | --- | --- | --- | --- | --- | --- | --- | --- | --- | --- | --- | --- | --- | --- |
| C[C@]12C=CC(=O)C=C1CC[C@@H]1[C@@H]2C(=O)C[C@@]2(C)[C@H]1CC[C@]2(O)C(=O)CO [prednisone] | did not impair the anti-tumor activity | – | – | – | – | – | – | – | – | – | – | – | – | – | – | – |
| CEA-TCB: novel T-cell bispecific antibody targeting CEA on tumor cells and CD3 on T cells; polypeptides of SEQ ID NO: 25-28 | – | 3.6 | On-treatment increases | 13 | 6 | 29 | < 600 | Five | 40 | 55 | 58 | Evidence of antitumor activity | potent antitumor activity | ADA increase CEA-TCB drug clearance | almost linear PK | increases in IL-6 |

From US20200199230A1, “TREATMENT METHOD” (Hoffmann-La Roche Inc., priority 2017, published 2020)
